Experimental findings from ChEMBL document CHEMBL5038626 (Eur J Med Chem, 2022) are described below.

One data set concerns Escherichia coli. Description: Antibacterial activity against Escherichia coli ATCC 8739 assessed as inhibition of bacterial growth incubated for 24 hrs by broth microdilution method. Format: functional. Background: Dilution methods test growth across graded concentrations, often in twofold steps.
The subject of the next data set is Staphylococcus aureus. The data set is described as follows: Antibacterial activity against Staphylococcus aureus Newman assessed as inhibition of bacterial growth incubated for 24 hrs by broth microdilution method. Format: functional.
For another data set, the target named is Topoisomerase IV (Staphylococcus aureus, UniProt P0C1S7+P0C1U9). The data set is described as follows: Inhibition of Staphylococcus aureus topoisomerase 4 assessed as reduction in decatenation using kDNA as substrate incubated for 30 mins by fluorimetric assay. The data set is classed as protein-complex assay.
The target in the next data set is DNA gyrase (Escherichia coli, UniProt P0AES4+P0AES6). Description: Inhibition of Escherichia coli DNA gyrase supercoiling activity using pBR322 as substrate incubated for 30 mins by fluorimetric assay. The data set is classed as protein-complex assay.
Another data set relates to Mus musculus. The data set is described as follows: Effect on GABA protein expression in Swiss albino mouse assessed as decrease in GABA protein expression at 0.6 mmol/Kg, iv administered as single dose by western blot analysis. Format: functional, organism-based. (In general: Immunoblotting shows a protein as a band on a membrane.)
Data set [1] is described as follows: Toxicity in Swiss albino mouse assessed as clonic convulsions at 0.6 mmol/Kg, iv administered as single dose observed for 6 hrs. Format: organism-based. To be noted: in vivo.

pIC50: −log10 of the molar value. In brackets after ≈: the same amount, converted by molar mass. Activity calls are given as the source filed them.

Topoisomerase IV, sequence (P0C1U9 whole entry): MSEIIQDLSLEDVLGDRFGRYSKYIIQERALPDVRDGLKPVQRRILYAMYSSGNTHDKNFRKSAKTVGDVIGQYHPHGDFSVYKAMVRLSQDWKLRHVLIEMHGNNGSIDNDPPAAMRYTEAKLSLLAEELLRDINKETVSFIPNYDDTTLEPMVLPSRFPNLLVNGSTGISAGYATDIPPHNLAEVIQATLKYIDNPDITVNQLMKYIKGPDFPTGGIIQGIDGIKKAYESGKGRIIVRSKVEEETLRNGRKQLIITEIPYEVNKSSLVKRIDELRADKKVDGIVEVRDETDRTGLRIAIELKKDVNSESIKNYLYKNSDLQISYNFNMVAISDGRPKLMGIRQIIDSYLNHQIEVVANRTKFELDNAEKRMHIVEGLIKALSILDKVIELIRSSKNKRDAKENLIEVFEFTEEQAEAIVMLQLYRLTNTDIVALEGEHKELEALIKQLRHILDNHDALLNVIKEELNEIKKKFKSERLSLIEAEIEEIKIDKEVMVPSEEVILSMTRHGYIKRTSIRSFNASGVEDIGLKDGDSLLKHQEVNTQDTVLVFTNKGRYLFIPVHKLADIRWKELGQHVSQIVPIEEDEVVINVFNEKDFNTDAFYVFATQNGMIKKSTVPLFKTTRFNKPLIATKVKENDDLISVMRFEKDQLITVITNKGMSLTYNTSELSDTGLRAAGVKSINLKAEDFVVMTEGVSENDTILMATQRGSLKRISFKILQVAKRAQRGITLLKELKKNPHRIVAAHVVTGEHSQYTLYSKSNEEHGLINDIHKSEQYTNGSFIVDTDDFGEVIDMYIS
Topoisomerase IV, sequence (P0C1S7 whole entry): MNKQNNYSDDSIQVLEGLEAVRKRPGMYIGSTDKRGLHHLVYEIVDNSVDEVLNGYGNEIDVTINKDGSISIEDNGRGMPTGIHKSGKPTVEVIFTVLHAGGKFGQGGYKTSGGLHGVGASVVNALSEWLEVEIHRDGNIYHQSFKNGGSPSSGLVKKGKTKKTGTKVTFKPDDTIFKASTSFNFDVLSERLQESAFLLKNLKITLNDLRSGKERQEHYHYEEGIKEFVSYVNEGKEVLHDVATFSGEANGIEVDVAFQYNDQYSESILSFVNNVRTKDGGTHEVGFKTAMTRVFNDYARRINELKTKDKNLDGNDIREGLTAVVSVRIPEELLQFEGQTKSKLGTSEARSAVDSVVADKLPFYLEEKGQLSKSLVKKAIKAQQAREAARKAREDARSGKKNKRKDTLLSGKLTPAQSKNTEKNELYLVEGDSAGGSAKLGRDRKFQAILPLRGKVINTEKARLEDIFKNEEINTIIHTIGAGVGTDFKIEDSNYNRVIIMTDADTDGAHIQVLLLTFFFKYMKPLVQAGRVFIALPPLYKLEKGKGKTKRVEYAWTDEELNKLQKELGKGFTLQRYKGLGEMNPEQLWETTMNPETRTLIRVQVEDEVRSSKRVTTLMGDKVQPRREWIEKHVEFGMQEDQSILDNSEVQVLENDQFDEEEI

With `NS(=O)(=O)c1ccc(NC(=O)CN2CCN(c3cc4c(cc3F)c(=O)c(C(=O)O)cn4C3CC3)CC2)cc1`, the MIC – broadly, the smallest concentration in the dilution series that meets the test's criterion for growth inhibition – with Escherichia coli came to 12.3 µM (≈ 6.67 µg/mL); with Staphylococcus aureus, 7.36 µM (≈ 4 µg/mL). In addition, the negative-log IC50 (pIC50) (in general, the negative decadic logarithm of the IC50, by convention in mol/L) is 5.42 at Topoisomerase IV and 5.88 against DNA gyrase.
Take `O=C(CN1CCN(c2cc3c(cc2F)c(=O)c(C(=O)O)cn3C2CC2)CC1)Nc1ccc(S(=O)(=O)Nc2ncccn2)cc1`: the MIC in the data set with Escherichia coli is 1.34 µM (≈ 0.834 µg/mL); with Staphylococcus aureus, 1.61 µM (≈ 1 µg/mL). For the same molecule, the pIC50 was 5.68 at Topoisomerase IV and 5.54 against DNA gyrase.
As to `NC(N)=NS(=O)(=O)c1ccc(/N=N/N2CCN(c3cc4c(cc3F)c(=O)c(C(=O)O)cn4C3CC3)CC2)cc1`, the MIC with Escherichia coli was 3 µM (≈ 1.67 µg/mL); in the data set on Staphylococcus aureus, 1.8 µM (≈ 1 µg/mL). Moreover, the result with Mus musculus was Active. In addition, the pIC50 at Topoisomerase IV was 6.19; against DNA gyrase, 6.11. Further, the Activity entry in data set [1] was “Non-Toxic”.
Turning to `O=C(CCN1CCN(c2cc3c(cc2F)c(=O)c(C(=O)O)cn3C2CC2)CC1)Nc1ccc(S(=O)(=O)Nc2cnc3ccccc3n2)cc1`, the results for the MIC with Escherichia coli and in the data set with Staphylococcus aureus were 0.608 µM (≈ 0.417 µg/mL) and 0.972 µM (≈ 0.667 µg/mL), respectively. The result in the data set on Mus musculus was Active. Moreover, the pIC50 at Topoisomerase IV was 6.64; against DNA gyrase, 6.37. Besides, the Activity entry in data set [1] is “Non-Toxic”.
Regarding `O=C(CN1CCN(c2cc3c(cc2F)c(=O)c(C(=O)O)cn3C2CC2)CC1)Nc1ccc(S(=O)(=O)Nc2cncc(Cl)n2)cc1`, the MIC came to 2.54 µM (≈ 1.67 µg/mL) with Escherichia coli and 1.52 µM (≈ 1 µg/mL) in the data set with Staphylococcus aureus. Further, the pIC50 at Topoisomerase IV was 5.64; at DNA gyrase, 6.05.
On the same counts, the results for `O=C(O)c1cn(C2CC2)c2cc(N3CCN(/N=N/c4ccc(S(=O)(=O)Nc5ncccn5)cc4)CC3)c(F)cc2c1=O` are 0.013 µM (≈ 0.0077 µg/mL), 0.422 µM (≈ 0.25 µg/mL), 5.02 and 4.89.
On the same counts, the results for `Cc1cc(NS(=O)(=O)c2ccc(/N=N/N3CCN(c4cc5c(cc4F)c(=O)c(C(=O)O)cn5C4CC4)CC3)cc2)no1` are 1.12 µM (≈ 0.666 µg/mL), 0.839 µM (≈ 0.5 µg/mL), 5.59 and 5.71.
The like results for `Cc1cc(NS(=O)(=O)c2ccc(NC(=O)CCN3CCN(c4cc5c(cc4F)c(=O)c(C(=O)O)cn5C4CC4)CC3)cc2)no1` were, in that order, 5.22 µM (≈ 3.33 µg/mL), 1.04 µM (≈ 0.667 µg/mL), 5.41 and 5.20.
In the case of `O=C(O)c1cn(C2CC2)c2cc(N3CCNCC3)c(F)cc2c1=O` [CIPROFLOXACIN], the MIC with Escherichia coli turned out to be 0.255 µM (≈ 0.0845 µg/mL); in the data set on Staphylococcus aureus it was 1.36 µM (≈ 0.45 µg/mL).
Turning to `O=C(O)c1cn(C2CC2)c2cc(N3CCN(/N=N/c4ccc(S(=O)(=O)Nc5cnc6ccccc6n5)cc4)CC3)c(F)cc2c1=O`, the MIC turned out to be 0.389 µM (≈ 0.25 µg/mL) in the data set with Escherichia coli and 5.19 µM (≈ 3.33 µg/mL) in the data set with Staphylococcus aureus. Moreover, the pIC50 on Topoisomerase IV was 4.89; against DNA gyrase, 5.23.
For the molecule `O=C(CCN1CCN(c2cc3c(cc2F)c(=O)c(C(=O)O)cn3C2CC2)CC1)Nc1ccc(S(=O)(=O)Nc2ncccn2)cc1`, the MIC with Escherichia coli came out at 2.62 µM (≈ 1.67 µg/mL); in the data set with Staphylococcus aureus it was 1.57 µM (≈ 1 µg/mL). Further, the pIC50 was 5.74 at Topoisomerase IV and 5.70 on DNA gyrase.
The like results for `NS(=O)(=O)c1ccc(NC(=O)CCN2CCN(c3cc4c(cc3F)c(=O)c(C(=O)O)cn4C3CC3)CC2)cc1` were, in that order, 0.897 µM (≈ 0.5 µg/mL), 2.99 µM (≈ 1.67 µg/mL), 6.22 and 5.96.
In the case of `Cc1cc(NS(=O)(=O)c2ccc(NC(=O)C(C)N3CCN(c4cc5c(cc4F)c(=O)c(C(=O)O)cn5C4CC4)CC3)cc2)no1` (stereo unspecified), the MIC with Escherichia coli turned out to be 1.04 µM (≈ 0.667 µg/mL); with Staphylococcus aureus, 0.783 µM (≈ 0.5 µg/mL). Moreover, the outcome in the data set on Mus musculus was Active. For the same molecule, the values for the pIC50 at Topoisomerase IV and against DNA gyrase were 6.41 and 5.90, respectively. Besides, the Activity entry in data set [1] was “Non-Toxic”.
For `O=C(CN1CCN(c2cc3c(cc2F)c(=O)c(C(=O)O)cn3C2CC2)CC1)Nc1ccc(S(=O)(=O)Nc2cnc3ccccc3n2)cc1`, the MIC with Escherichia coli was found to be 0.744 µM (≈ 0.5 µg/mL); with Staphylococcus aureus it was 1.99 µM (≈ 1.33 µg/mL). The outcome in the data set with Mus musculus was Active. In addition, the pIC50 at Topoisomerase IV was 6.46; against DNA gyrase, 6.26. Further, the Activity entry in data set [1] is listed as “Non-Toxic”.
On to `O=C(O)c1cn(C2CC2)c2cc(N3CCN(/N=N/c4ccc(S(=O)(=O)Nc5cncc(Cl)n5)cc4)CC3)c(F)cc2c1=O`, for which the figures for the MIC in the data set with Escherichia coli and with Staphylococcus aureus were 1.33 µM (≈ 0.833 µg/mL) and 1.59 µM (≈ 1 µg/mL), respectively. Moreover, the pIC50 on Topoisomerase IV and against DNA gyrase was 4.89 in each case.
As to `Cc1cc(NS(=O)(=O)c2ccc(NC(=O)CN3CCN(c4cc5c(cc4F)c(=O)c(C(=O)O)cn5C4CC4)CC3)cc2)no1`, the results for the MIC with Escherichia coli and with Staphylococcus aureus were 7.47 µM (≈ 4.67 µg/mL) and 3.2 µM (≈ 2 µg/mL), respectively. Further, the results for the pIC50 on Topoisomerase IV and on DNA gyrase were 5.33 and 5.88, respectively.
On the same counts, the results for `CC(C(=O)Nc1ccc(S(=O)(=O)Nc2cnc3ccccc3n2)cc1)N1CCN(c2cc3c(cc2F)c(=O)c(C(=O)O)cn3C2CC2)CC1` (stereo unspecified) are 1.94 µM (≈ 1.33 µg/mL), 0.729 µM (≈ 0.5 µg/mL), 5.92 and 5.84.
The like results for `O=C(CCN1CCN(c2cc3c(cc2F)c(=O)c(C(=O)O)cn3C2CC2)CC1)Nc1ccc(S(=O)(=O)Nc2cncc(Cl)n2)cc1` were, in that order, 287 µM (≈ 192 µg/mL), 287 µM (≈ 192 µg/mL), 6.36 and 5.91.
For `NS(=O)(=O)c1ccc(/N=N/N2CCN(c3cc4c(cc3F)c(=O)c(C(=O)O)cn4C3CC3)CC2)cc1`, the MIC with Escherichia coli was 0.025 µM (≈ 0.0129 µg/mL); in the data set with Staphylococcus aureus, 0.324 µM (≈ 0.167 µg/mL). Besides, the pIC50 on Topoisomerase IV is 5.61; on DNA gyrase it was 5.45.
On the same counts, the results for `CC(C(=O)Nc1ccc(S(N)(=O)=O)cc1)N1CCN(c2cc3c(cc2F)c(=O)c(C(=O)O)cn3C2CC2)CC1` (stereo unspecified) are 0.897 µM (≈ 0.5 µg/mL), 1.5 µM (≈ 0.834 µg/mL), 5.18 and 5.25.
